pIC50: −log10 of the molar value.
Assays:
[1] = molecular target: USP1 (Recombinant Human His6-USP1/His6-UAF1 Complex Protein) (Homo sapiens (Human), UniProt O94782); experiment: In vitro activity assay for USP1 (Ub-CHOP2-Reporter deubiquitination assay); format: biochemical; details: 0.5 h incubation at room temperature, read-out: In vitro inhibitory activity of USP1 IC50
Experimental: The assay kit (Ub-CHOP2-Reporter Deubiquitination Assay Kit) was purchased from Lifesensors, with Cat. No. of PR1101. The assay kit was subpackaged and stored at −80° C.
Each compound to be tested was dissolved with DMSO to 10 mM. The compound and pure DMSO (with a total volume of 50 nL) were loaded to each well of the 384-well plate by using an ECHO instrument to obtain gradient-diluted sample concentrations at different ratios. The enzyme was diluted with a freshly prepared reaction solution (20 mM Tris-HCl (pH 8.0), 2 mM CaCl2, 2 mM β-mercaptoethanol, 0.05% CHAPS, and ddH2O). To each well, 5 μL of diluted enzyme reaction solution was added, then the plate was centrifuged and oscillated to mix the enzyme and the compound, and the mixture was centrifuged again and placed on ice. The kit reporter system and the substrate were diluted with the reaction solution, then 5 μL of diluted liquid was added to each well, and mixed by centrifugation. The mixture was incubated at room temperature for 0.5 h. […] The inhibitory activity (IC50 values) of the compound on enzyme activity was calculated by using a four-parameter Logistic Model. […] A, B, C, and D are four parameters.
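Throughout, for GI50: MDA-MB-436 proliferation over 7 days with compound, viability read as ATP luminescence (CellTiter-Glo), inhibition relative to DMSO-only wells, day 0 signal as background, GI50 from four-parameter fit.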

Chain of USP1 (Recombinant Human His6-USP1/His6-UAF1 Complex Protein) (O94782 whole entry): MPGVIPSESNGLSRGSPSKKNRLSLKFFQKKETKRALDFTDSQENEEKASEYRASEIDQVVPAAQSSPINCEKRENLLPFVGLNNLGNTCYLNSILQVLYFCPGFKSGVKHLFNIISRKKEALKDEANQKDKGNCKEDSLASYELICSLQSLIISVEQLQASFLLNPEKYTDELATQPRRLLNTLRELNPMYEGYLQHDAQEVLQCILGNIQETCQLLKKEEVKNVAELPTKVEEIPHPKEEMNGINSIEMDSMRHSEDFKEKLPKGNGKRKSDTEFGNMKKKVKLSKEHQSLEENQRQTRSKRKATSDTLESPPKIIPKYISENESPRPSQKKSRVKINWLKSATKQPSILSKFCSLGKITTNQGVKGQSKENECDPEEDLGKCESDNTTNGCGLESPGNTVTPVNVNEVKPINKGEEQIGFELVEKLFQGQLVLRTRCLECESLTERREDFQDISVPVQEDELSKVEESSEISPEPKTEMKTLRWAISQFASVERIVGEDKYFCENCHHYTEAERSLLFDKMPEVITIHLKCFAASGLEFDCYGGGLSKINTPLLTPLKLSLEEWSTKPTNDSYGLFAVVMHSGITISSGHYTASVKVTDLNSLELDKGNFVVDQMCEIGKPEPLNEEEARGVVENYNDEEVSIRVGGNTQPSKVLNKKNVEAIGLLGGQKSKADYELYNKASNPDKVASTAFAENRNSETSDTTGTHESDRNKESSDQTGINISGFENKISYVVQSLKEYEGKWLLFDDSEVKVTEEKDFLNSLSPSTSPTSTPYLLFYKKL
Chain of USP1 (Recombinant Human His6-USP1/His6-UAF1 Complex Protein) (Q8TAF3 whole entry partner): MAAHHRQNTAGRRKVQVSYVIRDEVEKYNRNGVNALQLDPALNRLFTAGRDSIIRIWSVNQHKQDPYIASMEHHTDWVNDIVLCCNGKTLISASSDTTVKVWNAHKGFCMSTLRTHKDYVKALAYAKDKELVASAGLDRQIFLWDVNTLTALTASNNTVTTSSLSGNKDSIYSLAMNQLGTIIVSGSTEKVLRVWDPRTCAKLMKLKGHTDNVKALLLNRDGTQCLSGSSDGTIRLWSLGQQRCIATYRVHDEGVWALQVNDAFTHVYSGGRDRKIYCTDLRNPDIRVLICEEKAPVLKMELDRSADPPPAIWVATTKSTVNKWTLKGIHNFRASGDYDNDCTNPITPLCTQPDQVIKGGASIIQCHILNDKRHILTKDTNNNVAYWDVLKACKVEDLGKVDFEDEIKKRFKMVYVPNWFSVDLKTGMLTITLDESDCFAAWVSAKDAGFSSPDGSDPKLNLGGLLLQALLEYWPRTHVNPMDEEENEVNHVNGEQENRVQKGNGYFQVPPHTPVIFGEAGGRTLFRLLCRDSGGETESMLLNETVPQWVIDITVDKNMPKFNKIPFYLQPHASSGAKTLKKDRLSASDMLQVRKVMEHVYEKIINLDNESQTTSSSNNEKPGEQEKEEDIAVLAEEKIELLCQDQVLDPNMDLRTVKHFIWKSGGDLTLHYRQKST
Experimental for MDA-MB-436 cells: Assay based on CellTiter-Glo luminescent cell viability assay system.
The assay kit (CellTiter-Glo® Luminescent Cell Viability Assay) was purchased from Promega, with Cat. No. of G7573, and was stored at −30° C. after subpackage. The kit is a homogeneous assay method for assaying the number of viable cells in a culture based on quantitative determination of ATP. The kit produces a luminescence signal proportional to the amount of ATP present, and the amount of ATP is directly proportional to the number of cells in the culture.
The cultured cells were trypsinized, collected and centrifuged, then resuspended at an adjusted concentration in a culture solution (DMEM+10% FBS), and cultured overnight on a 384-well plate (400 cells/20 μl/well) in a cell incubator with 5% CO2 at 37° C. An ECHO instrument was used to added the compound and pure DMSO onto each well of the 384-well plate. The total volume of the compound and DMSO is 100 nL, and the instrument obtains gradient diluted sample concentrations through different ratios. To each well, 30 μL of culture solution was added, and after mixing by centrifugal oscillation and re-centrifugation, the cells were cultured in a cell incubator for 7 days (one column of cells was subjected to CTG assay on the day of dosing). After day 7, 25 μL of CTG assay solution was added to each well, and after mixing by centrifugal oscillation and re-centrifugation, the cells were placed at room temperature away from light for 10 min. In terms of chemiluminescence signals, an Envision plate reader (PerkinElmer, emission wavelength: 400-700 nm) was used to measure a signal in each well. The chemiluminescence value [RLU]cpd on day 7 was obtained for the treatment group, the chemiluminescence value [RLU]cell on day 7 was obtained for the non-treatment group (given DMSO only), and the chemiluminescence value [RLU]background on day 0 was obtained for the parallel non-treatment group (given DMSO only) by CTG assay on day 0. […] In the following equation, x represents the concentration of the compound in a logarithmic form; and F(x) represents an effect value (inhibition rate of proliferation at the concentration): F(x)=(A+((B−A)/(1+((C/x)^D)))). A, B, C, and D are four parameters.

GI50 (MDA-MB-436 cells) | pIC50 [1] | Structure (SMILES)
32.5 nM | 7.66 | COc1ncnc(C2CC2)c1-c1ncc2c(n1)N(Cc1ccc(-c3nc(C(F)(F)F)cn3C)cc1)C(C)CO2 (centres unmarked) [Compound 23, 2-(4-cyclopropyl-6-methoxypyrimidin-5-yl)-7-methyl-8-(4-(1-methyl-4-(trifluoromethyl)-1H-imidazol-2-yl)benzyl)-7,8-dihydro-6H-pyrimido[5,4-b][1,4]oxazine]
39.6 nM | 7.72 | CCN1C(=O)CN(Cc2ccc(-c3nc(C(F)(F)F)cn3CC)cc2)c2nc(-c3c(OC)ncnc3C3CC3)ncc21 [Compound 34, 2-(4-cyclopropyl-6-methoxypyrimidin-5-yl)-5-ethyl-8-(4-(1-ethyl-4-(trifluoromethyl)-1H-imidazol-2-yl)benzyl)-7,8-dihydropteridin-6(5H)-one]
48 nM | 7.34 | CCn1cc(C(F)(F)F)nc1-c1ccc(CN2CC(=O)N(C3CC3)c3cnc(-c4c(OC)ncnc4C4CC4)nc32)cc1F [Compound 73, 2-(4-cyclopropyl-6-methoxypyrimidin-5-yl)-8-(3-fluoro-4-(1-ethyl-4-(trifluoromethyl)-1H-imidazol-2-yl)benzyl)-5-cyclopropyl-7,8-dihydropteridin-6(5H)-one]
546 nM | 7.08 | COc1ncnc(C2CC2)c1-c1ncc2c(n1)N(Cc1ccc(-c3nc(C(F)(F)F)cn3C)cc1)CN(C)C2=O [Compound 36, 7-(4-cyclopropyl-6-methoxypyrimidin-5-yl)-3-methyl-1-(4-(1-methyl-4-(trifluoromethyl)-1H-imidazol-2-yl)benzyl)-2,3-dihydropyrimido[4,5-d]pyrimidin-4(1H)-one]
48.7 nM | 7.74 | COc1ncnc(C2CC2)c1-c1ncc2c(n1)N(Cc1ccc(-c3nc(C(F)(F)F)cn3C3CC3)c(F)c1)CC(=O)N2C1CC1 [Compound 77, 2-(4-cyclopropyl-6-methoxypyrimidin-5-yl)-8-(3-fluoro-4-(1-cyclopropyl-4-(trifluoromethyl)-1H-imidazol-2-yl)benzyl)-5-cyclopropyl-7,8-dihydropteridin-6(5H)-one]
80.2 nM | 7.02 | COc1ncnc(C2CC2)c1-c1ncc2c(n1)N(Cc1ccc3c(c1)C(C)CCn1cc(C(F)(F)F)nc1-3)CC(=O)N2C (centres unmarked) [Compound 79, 2-(4-cyclopropyl-6-methoxypyrimidin-5-yl)-5-methyl-8-((7-methyl-2-(trifluoromethyl)-6,7-dihydro-5H-benzo[c]imidazo[1,2-a]azepin-9-yl)methyl)-7,8-dihydropteridin-6(5H)-one]
22.9 nM | 7.74 | CC(C)c1ncccc1-c1ncc2c(n1)N(Cc1ccc(-c3nc(C(F)(F)F)cn3C)cc1)CCO2 [Compound 1, 2-(2-isopropylpyridin-3-yl)-8-(4-(1-methyl-4-(trifluoromethyl)-1H-imidazol-2-yl)benzyl)-7,8-dihydro-6H-pyrimido[5,4-b][1,4]oxazine]
152 nM | 7.36 | COc1ncnc(C2CC2)c1-c1ncc2c(n1)N(Cc1ccc(-c3nc(C(F)(F)F)cn3C)cc1)CC(=O)N2 [Compound 5, 2-(4-cyclopropyl-6-methoxypyrimidin-5-yl)-8-(4-(1-methyl-4-(trifluoromethyl)-1H-imidazol-2-yl)benzyl)-7,8-dihydropteridin-6(5H)-one]
53.1 nM | 7.02 | COc1ncnc(C2CC2)c1-c1ncc2c(n1)N(Cc1ccc(-c3nc(C(F)(F)F)cn3C)cc1)CC(=O)N2C(C)C [Compound 78, 2-(4-cyclopropyl-6-methoxypyrimidin-5-yl)-8-(4-(1-methyl-4-(trifluoromethyl)-1H-imidazol-2-yl)benzyl)-5-isopropyl-7,8-dihydropteridin-6(5H)-one]
27 nM | 7.92 | CCn1cc(C(F)(F)F)nc1-c1ccc(CN2CC(=O)N(C)c3cnc(-c4c(OC)ncnc4C4CC4)nc32)cc1F [Compound 68, 2-(4-cyclopropyl-6-methoxypyrimidin-5-yl)-5-methyl-8-(3-fluoro-4-(1-ethyl-4-(trifluoromethyl)-1H-imidazol-2-yl)benzyl)-7,8-dihydropteridin-6(5H)-one]
74.1 nM | 7.15 | COc1ncnc(C2CC2)c1-c1ncc2c(n1)N(Cc1ccc(-c3nc(C(F)(F)F)cn3C)c(F)c1)CC(=O)N2C1CC1 [Compound 71, 2-(4-cyclopropyl-6-methoxypyrimidin-5-yl)-8-(3-fluoro-4-(1-methyl-4-(trifluoromethyl)-1H-imidazol-2-yl)benzyl)-5-cyclopropyl-7,8-dihydropteridin-6(5H)-one]
17.3 nM | 7.77 | COc1ncnc(C2CC2)c1-c1ncc2c(n1)N(Cc1ccc(-c3nc(C(F)(F)F)cn3C(C)C)c(F)c1)CC(=O)N2C [Compound 67, 2-(4-cyclopropyl-6-methoxypyrimidin-5-yl)-5-methyl-8-(3-fluoro-4-(1-isopropyl-4-(trifluoromethyl)-1H-imidazol-2-yl)benzyl)-7,8-dihydropteridin-6(5H)-one]
35.8 nM | 7.23 | COc1ncnc(C2CC2)c1-c1ncc2c(n1)N(Cc1ccc3c(c1)CCCn1cc(C(F)(F)F)nc1-3)CC(=S)N2C [Compound 82, 2-(4-cyclopropyl-6-methoxypyrimidin-5-yl)-5-methyl-8-((2-(trifluoromethyl)-6,7-dihydro-5H-benzo[c]imidazo[1,2-a]azepin-9-yl)methyl)-7,8-dihydropteridine-6(5H)-thione]
474 nM | 7.06 | COc1ncnc(C2CC2)c1-c1ncc2c(n1)N(Cc1ccc(-c3nc(C(F)(F)F)cn3C)cc1)C1CCCN1C2=O (centres unmarked) [Compound 42, 2-(4-cyclopropyl-6-methoxypyrimidin-5-yl)-10-(4-(1-methyl-4-(trifluoromethyl)-1H-imidazol-2-yl)benzyl)-8,9,9a,10-tetrahydropyrimido[4,5-d]pyrrolo[1,2-a]pyrimidin-5(7H)-one]
24.5 nM | 7.95 | COc1ncnc(C2CC2)c1-c1ncc2c(n1)N(Cc1cc(F)c(-c3nc(C(F)(F)F)cn3C)cc1F)CCO2 [Compound 63]
20.1 nM | 7.47 | COc1ncnc(C2CC2)c1-c1ncc2c(n1)N(Cc1ccc(-c3nc(C(F)(F)F)cn3C)cc1)CC(C)O2 (centres unmarked) [Compound 15, 2-(4-cyclopropyl-6-methoxypyrimidin-5-yl)-6-methyl-8-(4-(1-methyl-4-(trifluoromethyl)-1H-imidazol-2-yl)benzyl)-7,8-dihydro-6H-pyrimido[5,4-b][1,4]oxazine]
24.4 nM | 7.70 | COc1ncnc(C2CC2)c1-c1ncc2c(n1)N(Cc1ccc(-c3nc(C(F)(F)F)cn3C)cc1)C(=O)N(C)C2 [Compound 29, 7-(4-cyclopropyl-6-methoxypyrimidin-5-yl)-3-methyl-1-(4-(1-methyl-4-(trifluoromethyl)-1H-imidazol-2-yl)benzyl)-3,4-dihydropyrimido[4,5-d]pyrimidin-2(1H)-one]
27.5 nM | 7.86 | COc1ncnc(C2CC2)c1-c1ncc2c(n1)N(Cc1ccc(-n3nc(C(F)(F)F)cc3C)c(F)c1)CC(=O)N2C [Compound 44, 2-(4-cyclopropyl-6-methoxypyrimidin-5-yl)-5-methyl-8-(3-fluoro-4-(5-methyl-3-(trifluoromethyl)-1H-pyrazol-1-yl)benzyl)-7,8-dihydropteridin-6(5H)-one]
19.8 nM | 8.09 | Cn1cc(C(F)(F)F)nc1-c1ccc(CN2C(=O)OC(C)(C)c3cnc(-c4c(OC(F)F)ncnc4C4CC4)nc32)cc1F [Compound 57, 7-(4-cyclopropyl-6-(difluoromethoxy)pyrimidin-5-yl)-1-(3-fluoro-4-(1-methyl-4-(trifluoromethyl)-1H-imidazol-2-yl)benzyl)-4,4-dimethyl-1,4-dihydro-2H-pyrimido[4,5-d][1,3]oxazin-2-one]

From US20240226107A1, “UBIQUITIN-SPECIFIC PROTEASE 1 (USP1) INHIBITOR” (SIMCERE ZAIMING PHARMACEUTICAL CO., LTD., priority 2021, published 2024)
